# Assays:
# SIV = settings: general statement, no own test; cited from earlier work
# [1] = CCl4-induced liver injury (cirrhosis with ascites) in rats: serum proteins, ascites, fibrosis markers; type: in vivo, rat; settings: 4 weeks
# [2] = Tuberculous pleural effusions and serum albumin in BCG-sensitized guinea pigs; type: in vivo; settings: 5 mg/kg, 7 days
# Excerpt: After sensitizing with BCG for 42 days, guinea pig was administrated with preparations for 7 days, sensitized for 2 days continuously, then measured the level of Pleural Effusion, number of white blood cell and content of serum albumin
# H37Rv Tubercle Bacillus = assay: Anti-tubercle bacillus assay in vivo, total lung bacterial count; settings: infected C57BL/6 mice, 25 mg/kg
# Procedure: Anti-tubercle bacillus assay is tested in vivo. C57BL/6 mice infected with H37Rv Tubercle Bacillus are divided into 6 groups (n=15), one is normal control group, another is positive control group (INH: 25 mg/kg), in other groups, preparations was added into mice's feed, animals are administrated consecutive 16 weeks.
# Experimental staff Killed 5 mice at the 2nd, 4th, 16th week, obtained lung and spleen, put them into 1 ml 7H9 media, grinded and converted them into 1.5 ml Ep tube, doublely diluted 10 times with 7H9 media, then Plated different dilutions onto 7H11 solid media plates for 4w at 37° C., counted tuberculosis colonys.
# Calculation Formula: (initial number of clone×final broth volume×dilution factor 10^3×2×10)+(initial number of clone colony×final broth volume×dilution factor 10^4×2×10)+(initial number of clone colony×final broth volume×dilution factor 10^5×2×10)/3
# Take tissue for pathological examination, weight lung, Calculation Formula: (initial number of clone×final broth volume×dilution factor 10^3×2×10)+(initial number of clone colony×final broth volume×dilution factor 10^4×2×10)+(initial number of clone colony×final broth volume×dilution factor 10^5×2×10)/3×initial organ weight/organ weight in treatment.
# Count number of Lung bacterial or mouse spleen CFU of every mouse in each group, convert data in accordance with 1 g (CFU).
# [3] = tested on: HRSE-resistant (Isoniazid, Rifampicin, Streptomycin, Ethambutol-resistant) tubercle bacillus; type: cell-based; settings: serum of mice dosed 25 mg/kg, 10% serum
# [4] = tested on: R-resistant (Rifampicin) tubercle bacillus; type: cell-based; settings: serum of mice dosed 25 mg/kg, 10% serum
# [5] = tested on: HR-resistant (Isoniazid and Rifampicin) tubercle bacillus; type: cell-based; settings: serum of mice dosed 25 mg/kg, 10% serum
# [6] = tested on: H-resistant (Isoniazid) tubercle bacillus; type: cell-based; settings: serum of mice dosed 25 mg/kg, 10% serum
# [7] = Serum albumin in rats with intra-abdominal infection; type: in vivo; settings: 30 mg/kg
# Excerpt: The mice are divided into 6 groups (n=10), i.e., Normal control group, Negative control group, Positive control group (Panaxoside), in the remaining 3 groups, rats were fed with preparation 1 through intragastric administration for 6 days. Under anesthesia by diethyl ether, abdominal cavity of mice were cut open, experimental staff stick a puncture on appendices with needle to cause it infected, then sew up abdominal wound. Continue administration after surgery, animals were executed for collecting their blood to measure serum albumin levels, results are listed in Table 7.
# [8] = CCl4 rats with ascites, 0.23 mg/kg intragastrically
compound,measurement,setting,value
"Cc1cn([C@H]2C[C@H](N=[N+]=[N-])[C@@H](CO)O2)c(=O)[nH]c1=O [AZT, Zidovudine]",inhibition of infection by SIV,SIV,could not inhibited infection
"COc1cc2c(c(OC)c1OC)-c1ccc(OC)c(=O)cc1[C@@H](NC(C)=O)CC2 [Colchicine, colchicine]",ALB,[1]; [8],38.1 ± 5.6 g/L
same,ALB/GLB,[1]; [8],2.8 ± 1.6
same,GLB,[1]; [8],17.1 ± 7.7 g/L
same,Incidence (ascites),"[1]; CCl4 rats, 0.23 mg/kg",50%
same,Animal with ascites n,"[1]; CCl4 rats, 0.23 mg/kg, of 10 animals",5
same,HPRO,"[1]; CCl4 rats, liver, 0.23 mg/kg",0.29 ± 0.08 mg/g (Liver Weight)
C[C@@H]1C[C@H]2[C@@H]3CCC4=CC(=O)C=C[C@]4(C)[C@@]3(F)[C@@H](O)C[C@]2(C)[C@@]1(O)C(=O)CO [Dexamethasone],ALB,[2],29.05 ± 3.49 g/L
same,Exudates volumes,[2],1.2 ± 0.44 mL
same,WBC,[2],19.1 ± 5.24 ×109
"NNC(=O)c1ccncc1 [INH, Isoniazid]","Total Lung bacterical count, Mean lg (CFU ± SEM)",H37Rv Tubercle Bacillus; 2 w,6.12 ± 0.22 lg (CFU)
same,"Total Lung bacterical count, Mean lg (CFU ± SEM)",H37Rv Tubercle Bacillus; 4 w,5.59 ± 0.20 lg (CFU)
same,"Total Lung bacterical count, Mean lg (CFU ± SEM)",H37Rv Tubercle Bacillus; 16 w,2.77 ± 0.16 lg (CFU)
same,"Inhibition rate of serum, HRSE-resistance",[3],21%
same,"Inhibition rate of serum, R-resistance",[4],72%
same,"Inhibition rate of serum, HR-resistance",[5],67%
same,"Inhibition rate of serum, H-resistance",[6],0%
Panaxoside,ALB,[7],29.64 ± 2.29 g/L
